# According to patent US5552308A, “CDNA clone of a rat serotonin transporter and protein encoded thereby” (priority 1991, dated 1996):
# Columns and labels:
# 5-HT transporter [1] = conditions: cited from earlier work
# 5-HT transporter [2] = target: T1, 5-HT transporter (Rattus norvegicus, UniProt P31652); experiment: Inhibition of 3H-5-HT uptake in CV-1 cells transfected with the 5-HT transporter cDNA; assay type: cell-based; conditions: for inhibition of 5-HT uptake (in words): CV-1 cells transfected with 5HTT cDNA
# serotonergic neurons = conditions: cited from earlier work
# 5-HT transporter [3] = target: T1, 5-HT transporter; experiment: 3H-5-HT uptake (saturation kinetics, ion dependence) in CV-1 cells transfected with the 5HTT cDNA; assay type: cell-based; conditions: read-out: Km of 3H-5-HT uptake; transfected CV-1 cells; 3H-5-HT 0.1 nM to 10 uM; 15 min; mean +/- SEM
# T1 sequence (P31652 whole entry): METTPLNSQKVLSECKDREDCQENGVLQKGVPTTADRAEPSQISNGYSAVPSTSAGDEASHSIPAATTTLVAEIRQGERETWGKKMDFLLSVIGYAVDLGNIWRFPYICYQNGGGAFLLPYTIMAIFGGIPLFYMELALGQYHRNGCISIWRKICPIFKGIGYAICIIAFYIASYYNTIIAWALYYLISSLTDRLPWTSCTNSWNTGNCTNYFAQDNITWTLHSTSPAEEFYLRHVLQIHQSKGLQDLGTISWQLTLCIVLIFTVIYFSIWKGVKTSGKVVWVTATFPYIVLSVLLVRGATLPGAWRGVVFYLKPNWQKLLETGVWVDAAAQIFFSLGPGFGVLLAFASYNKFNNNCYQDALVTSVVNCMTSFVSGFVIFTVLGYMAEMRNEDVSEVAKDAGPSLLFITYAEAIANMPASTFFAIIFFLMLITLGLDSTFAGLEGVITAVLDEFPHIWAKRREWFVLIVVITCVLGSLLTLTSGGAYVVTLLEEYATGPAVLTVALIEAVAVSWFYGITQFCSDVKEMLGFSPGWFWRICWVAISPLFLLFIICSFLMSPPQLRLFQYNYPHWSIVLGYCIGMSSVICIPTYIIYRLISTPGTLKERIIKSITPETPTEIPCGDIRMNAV
SMILES,inhibition of 5-HT uptake (in words) (5-HT transporter [2]),Ki (5-HT transporter [2]) [nM],also measured
CC(N)Cc1ccccc1 (stereo not drawn) [Amphetamine],–,–,transport by the 5-HT transporter and release of 5-HT (in words) (5-HT transporter [1]): substrates for transport by the 5-HT transporter and stimulate release of 5-HT
COC(=O)[C@H]1[C@@H](OC(=O)c2ccccc2)C[C@@H]2CC[C@H]1N2C [cocaine],relatively potent inhibitor of 5-HT uptake,–,–
"CNC(C)Cc1ccc2c(c1)OCO2 (racemic) [± MDMA, 3,4-Methylenedioxy-methamphetamine]",potent inhibition of ^3 H-5-HT uptake,186 ± 27,neurotoxicity to serotonergic neurons (in words) (serotonergic neurons): potent neurotoxin of serotonergic neurons which causes irreversible cell degeneration
OC1(c2ccc(Cl)cc2)c2ccccc2C2=NCCN21 (stereo not drawn) [mazindol],lower affinity for the 5-HT transporter,548 ± 120,–
"NCCc1c[nH]c2ccc(O)cc12 [^3 H-5-HT, serotonin]",–,–,Km (5-HT transporter [3]): 0.529 ± 0.107 µM
NCCc1ccc(O)c(O)c1 [dopamine],ineffective at blocking 5-HT uptake,> 10000,–
NC[C@H](O)c1ccc(O)c(O)c1 [noradrenaline],ineffective at blocking 5-HT uptake,> 10000,–
